From patent publication EP4570805A1, “TRICYCLIC COMPOUNDS AND MEDICAL USE THEREOF” (Chia Tai Tianqing Pharmaceutical Group Co., Ltd., priority 2022, dated 2024)

How the values were obtained:
Capan-1 cells = experiment: Inhibitory activity for Capan-1 cell proliferation (CCK-8); type: cell-based; conditions: Homo sapiens, CAPAN-1, 120 h, 5 days incubation
Procedure, shortened: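 Capan-1 cells were seeded at 1.5 × 10^4 cells/mL and exposed to compound for 5 days. CCK-8 was added for 4 h, with absorbance read at 450 nm. IC50 came from a four-parameter dose-response fit.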

[1] = In vitro liver microsomal stability, human; type: in vitro ADME; conditions: human liver microsome 0.5 mg/mL, 37 °C
Excerpt: Table 2. Results for in vitro liver microsomal metabolic stability

[2] = In vivo pharmacokinetics in mice; conditions: mouse, plasma, po, ICR mice, IG, 10 mg/kg
Procedure: ICR mice weighing 20 g to 24 g were randomized into groups with 9 mice in each group after 3 to 5 days of acclimatization, and intragastric administration of the experimental compounds was performed at a dose of 10 mg/kg.
The test animals (ICR mice) were fasted for 12 h before administration and fed 4 h after administration, and were given free access to water before, after, and during the experiment.
After intragastric administration, about 0.1 mL of blood was collected via the orbital sinus at 0.25 h (15 min), 0.5 h (30 min), 1 h, 2 h, 4 h, 6 h, 8 h, and 10 h (each mouse was subjected to blood collection at 3 to 4 time points, with 3 mice per time point). Following anticoagulation with EDTA-K2, the blood samples were transferred to a centrifuge within 30 min and then centrifuged at 4000 rpm for 10 min at 4 °C to separate the plasma. All the plasma samples were collected and immediately stored at -20 °C for testing.
20 µL of the plasma sample to be tested and the standard curve sample were pipetted, and 400 µL of acetonitrile solution containing an internal standard (20 ng/mL) was added. The mixture was shaken and mixed well for 10 min, and centrifuged at 13000 rpm for 10 min. 50 µL of the supernatant was taken and diluted with 100 µL of ultrapure water. After being mixed well, 0.5 µL of the resulting sample was subjected to LC/MS/MS, and a chromatogram was recorded.
Oral exposure of the compounds of the present disclosure was evaluated by in vivo pharmacokinetic experiments in mice.

## CC(c1cccnc1N)N1c2nc(OC[C@@H]3CCCN3C)nc3c(F)c(-c4cc(N)cc(Cl)c4C(F)(F)F)nc(c23)OC[C@@H]1C (single isomer, unassigned) [Example 162]
Capan-1 cells
  IC50: < 100 nM
[1]
  The remaining amount % (T = 60 min) (0.5 mg/mL) Human liver microsome: >40%
[2]
  Cmax: 38.4 ng/mL
  Tmax: 1 h
[2]; gavage parameters were fitted to 6 h
  AUC(0-t) at 6 h: 156 ng·h/mL
